Results taken from patent EP2435433B1, “(DIHYDRO)IMIDAZOISO[5,1-A]QUINOLINES AS FSH RECEPTOR AGONISTS FOR THE TREATMENT OF FERTILITY DISORDERS” (Merck Sharp & Dohme B.V., priority 2009, dated 2010).
Where two headings read alike, the source gives them in different places.

Biological target: T1, human FSH receptor (Homo sapiens, UniProt P23945)
T1 construct: expressed in transfected cells; host or cells: Chinese Hamster Ovary (CHO) cells, stably transfected, cotransfected with CRE/promotor-firefly luciferase reporter
T1 sequence (P23945 18-695): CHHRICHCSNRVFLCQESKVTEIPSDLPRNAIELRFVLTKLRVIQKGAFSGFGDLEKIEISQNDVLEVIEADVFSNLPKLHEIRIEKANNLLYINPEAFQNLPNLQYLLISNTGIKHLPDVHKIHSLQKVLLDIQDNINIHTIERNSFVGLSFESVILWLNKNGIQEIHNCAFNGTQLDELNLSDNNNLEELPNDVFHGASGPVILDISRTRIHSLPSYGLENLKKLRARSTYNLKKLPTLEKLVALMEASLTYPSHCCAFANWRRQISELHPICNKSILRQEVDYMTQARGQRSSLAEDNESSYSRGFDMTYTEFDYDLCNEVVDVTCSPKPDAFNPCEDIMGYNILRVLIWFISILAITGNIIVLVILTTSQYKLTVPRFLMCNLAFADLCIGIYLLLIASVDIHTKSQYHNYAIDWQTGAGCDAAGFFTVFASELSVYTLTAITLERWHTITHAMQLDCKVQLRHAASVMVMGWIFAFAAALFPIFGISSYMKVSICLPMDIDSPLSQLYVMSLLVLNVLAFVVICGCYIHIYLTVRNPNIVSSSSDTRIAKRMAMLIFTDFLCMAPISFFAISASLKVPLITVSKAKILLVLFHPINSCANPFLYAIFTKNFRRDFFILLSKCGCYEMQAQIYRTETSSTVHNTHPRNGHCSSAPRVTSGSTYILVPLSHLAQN
Experiment: Agonistic activity of compounds at the human FSH receptor expressed in CHO cells, CRE/luciferase reporter (hFSHRago (CHO luc))
Format: cell-based
From the text: The term EC50 means the concentration of the test compound that elicits half-maximal (50 %) stimulation compared to the compound's maximally attainable effect. The values can be determined e.g. in a cell line transfected with a FSH receptor gene and cotransfected with a cAMP responsive element/promoter directing the expression of a reporter gene. Values can be determined using a software program such as MathIQ (version 2.0, ID Business Solutions Limited).
Agonistic activity of the compounds at the human FSH receptor was determined in Chinese Hamster Ovary (CHO) cells stably transfected with the human FSH receptor and cotransfected with a cAMP responsive element (CRE)/promotor directing the expression of a firefly luciferase reporter gene. Binding of the compounds to the Gs protein-coupled FSH receptor will result in an increase of cAMP, which in turn will induce an increased transactivation of the luciferase reporter. Cells (7,500 cells/well of a 384 well plate) were incubated in Dulbecco' minimal essential F12 modified medium (Invitrogen), supplemented with 1 µg/ml bovine insulin, 5 µg/ml human apo-transferrin, 80 U/ml penicillin G and 80 µg/ml streptomycin with the test compounds (concentration between 0.0316 nM and 10.0 µM) in duplicate in a humidified atmosphere (95%) at 5-7% CO2 and 37°C. The final concentration of DMSO was 1%. After 4 hours of incubation, plates were allowed to adjust to room temperature for 1 hour. Then, Luclite (PerkinElmer) solution was added to the wells and cells were allowed to lyse for at least 1 hour at room temperature. Subsequently, luciferase activity was measured in a luminescence counter. The signal is expressed as counts per second (cps). The EC50 (concentration of the test compound that elicits half-maximal (50 %) luciferase stimulation compared to the compound's maximally attainable effect) and efficacy values (maximal effect of the test compound as percentage of the maximal effect of recombinant human FSH) of the compounds were determined using the software program MathIQ (version 2.0, ID Business Solutions Limited). EC50 data are indicated at the synthesis examples.

[1] = CHO cells stably transfected with the human FSH receptor and CRE/firefly luciferase reporter, 4 hours of incubation, half-maximal stimulation relative to the compound's own maximal effect, read-out: hFSHRago (CHO luc) EC50

EC50 [1]	Compound	EC50
3 nM	CCN(C(=O)c1nc(-c2cccs2)c2n1CCc1cc(OC)c(OCCO)cc1-2)C(C)(C)C [Example 34b, 9-(2-Hydroxy-ethoxy)-8-methoxy-1-thiophen-2-yl-5,6-dihydro-imidazo[5,1-a]isoquinoline-3-carboxylic acid tert-butyl-ethyl-amide]	
15 nM	COc1cc2c(cc1OCCN=[N+]=[N-])-c1c(-c3cccs3)nc(C(=O)N(C)C(C)(C)C)n1CC2 [Example 30e, 9-(2-Azido-ethoxy)-8-methoxy-1-thiophen-2-yl-5,6-dihydro-imidazo[5,1-a]isoquinoline-3-carboxylic acid tert-butyl-methyl-amide]	
2 nM	COc1cc2c(cc1-c1cccc(-n3cccn3)c1)-c1c(-c3cccs3)nc(C(=O)N(C)C(C)(C)C)n1CC2 [Example 2g, 8-Methoxy-9-(3-pyrazol-1-yl-phenyl)-1-thiophen-2-yl-5,6-dihydro-imidazo[5,1-a]iso-quinoline-3-carboxylic acid tert-butyl-methyl-amide]	
0.9 nM	CCN(C(=O)c1nc(-c2cccs2)c2n1CCc1cc(OC)c(OC(C)C)cc1-2)C(C)(C)C [Example 21f, 9-Isopropoxy-8-methoxy-1-thiophen-2-yl-5,6-dihydro-imidazo[5,1-a]isoquinoline-3-carboxylic acid tert-butyl-ethyl-amide]	
2 nM	COc1cc2c(cc1-c1cccc(N3CCOCC3)c1)-c1c(-c3cccs3)nc(C(=O)N(C)C(C)(C)C)n1CC2 [Example 2h, 8-Methoxy-9-(3-morpholin-4-yl-phenyl)-1-thiophen-2-yl-5,6-dihydro-imidazo[5,1-a]iso-quinoline-3-carboxylic acid tert-butyl-methyl-amide]	
15 nM	COc1cc2c(cc1-c1cccc(S(C)(=O)=O)c1)-c1c(-c3cccs3)nc(C(=O)N(C)C(C)(C)C)n1CC2 [Example 2p, 9-(3-Methanesulfonyl-phenyl)-8-methoxy-1-thiophen-2-yl-5,6-dihydro-imidazo[5,1-a]iso-quinoline-3-carboxylic acid tert-butyl-methyl-amide]	
1 nM	COc1cc2c(cc1-c1cccc(NC(C)=O)c1)-c1c(-c3cccs3)nc(C(=O)N(C)C(C)(C)C)n1CC2 [Example 2f, 9-(3-Acetylamino-phenyl)-8-methoxy-1-thiophen-2-yl-5,6-dihydro-imidazo[5,1-a]iso-quinoline-3-carboxylic acid tert-butyl-methyl-amide]	
9 nM	COc1cc2ccn3c(C(=O)N(C)C(C)(C)C)nc(-c4cccs4)c3c2cc1C=C(C)C [Example 16e, 8-Methoxy-9-(2-methyl-propenyl)-1-thiophen-2-yl-imidazo[5,1-a]isoquinoline-3-carboxylic acid tert-butyl-methyl-amide]	
	COc1cc2c(cc1-c1cccnc1)-c1c(-c3cccs3)nc(C(=O)N(C)C(C)(C)C)n1CC2 [Example 2a]	1 nM
630 nM	COc1cc2c(cc1OC)-c1c(-c3ccccc3)nc(C(=O)N3CCCCCC3)n1CC2 [Example 49d, Azepan-1-yl-(8,9-dimethoxy-1-phenyl-5,6-dihydro-imidazo[5,1-a]isoquinolin-3-yl)-methanone]	
8 nM	COc1cc2c(cc1CC(C)C)-c1c(-c3cccs3)nc(C(=O)N(C)C(C)(C)C)n1CC2 [Example 18k, 9-Isobutyl-8-methoxy-1-thiophen-2-yl-5,6-dihydro-imidazo[5,1-a]isoquinoline-3-carboxylic acid tert-butyl-methyl-amide]	
3 nM	COc1cc2c(cc1-c1cccc(F)c1)-c1c(-c3cccs3)nc(C(=O)N(C)C(C)(C)C)n1CC2 [Example 2i, 9-(3-Fluoro-phenyl)-8-methoxy-1-thiophen-2-yl-5,6-dihydro-imidazo[5,1-a]isoquinoline-3-carboxylic acid tert-butyl-methyl-amide]	
559 nM	COc1cc2c(cc1OCCNC(C)=O)-c1c(-c3cccs3)nc(C(=O)N(C)C(C)(C)C)n1CC2 [Example 32, 9-(2-Acetylamino-ethoxy)-8-methoxy-1-thiophen-2-yl-5,6-dihydro-imidazo[5,1-a]isoquinoline-3-carboxylic acid tert-butyl-methyl-amide]	
407 nM	CC(C)Cc1ccc2c(c1)-c1c(-c3cccs3)nc(C(=O)N(C)C(C)(C)C)n1CC2 [Example 20b, 9-Isobutyl-1-thiophen-2-yl-5,6-dihydro-imidazo[5,1-a]isoquinoline-3-carboxylic acid tert-butyl-methyl-amide]	
9 nM	COc1cc2c(cc1-c1c(C)noc1C)-c1c(-c3cccs3)nc(C(=O)N(C)C(C)(C)C)n1CC2 [Example 2m, 9-(3,5-Dimethyl-isoxazol-4-yl)-8-methoxy-1-thiophen-2-yl-5,6-dihydro-imidazo[5,1-a]iso-quinoline-3-carboxylic acid tert-butyl-methyl-amide]	
333 nM	COc1cc2c(cc1OC)-c1c(-c3cccs3)nc(C(=O)N3CCCC3C)n1CC2 (stereo not drawn) [Example 24c, (2-Methyl-pyrrolidin-1-yl)-(9-methoxy-8-methoxy-1-thiophen-2-yl-5,6-dihydro-imidazo[5,1-a]isoquinolin-3-yl)-methanone]	
28 nM	C=Cc1cc2c(cc1OC)CCn1c(C(=O)N(C)C(C)(C)C)nc(-c3cccs3)c1-2 [Example 3b, 8-Methoxy-1-thiophen-2-yl-9-vinyl-5,6-dihydro-imidazo[5,1-a]isoquinoline-3-carboxylic acid tert-butyl-methyl-amide]	
49 nM	COc1cc2c(cc1NC(=O)[C@H](C)N)-c1c(-c3cccs3)nc(C(=O)N(C)C(C)(C)C)n1CC2 [Example 8, 9-((S)-2-Amino-propionylamino)-8-methoxy-1-thiophen-2-yl-5,6-dihydro-imidazo[5,1-a]isoquinoline-3-carboxylic acid tert-butyl-methyl-amide]	
11 nM	COc1cc2c(cc1-c1cccc(C(=O)N(C)C)c1)-c1c(-c3cccs3)nc(C(=O)N(C)C(C)(C)C)n1CC2 [Example 2n, 9-(3-Dimethylcarbamoyl-phenyl)-8-methoxy-1-thiophen-2-yl-5,6-dihydro-imidazo[5,1-a]iso-quinoline-3-carboxylic acid tert-butyl-methyl-amide]	
12 nM	COc1cc2c(cc1NC(=O)c1nccs1)-c1c(-c3cccs3)nc(C(=O)N(C)C(C)(C)C)n1CC2 [Example 10, 8-Methoxy-9-[(thiazole-2-carbonyl)-amino]-1-thiophen-2-yl-5,6-dihydro-imidazo[5,1-a]isoquinoline-3-carboxylic acid tert-butyl-methyl-amide]	
13 nM	COc1cc2c(cc1-c1ccccn1)-c1c(-c3cccs3)nc(C(=O)N(C)C(C)(C)C)n1CC2 [Example 2b, 8-Methoxy-9-pyridin-2-yl-1-thiophen-2-yl-5,6-dihydro-imidazo[5,1-a]isoquinoline-3-carboxylic acid tert-butyl-methyl-amide]	
14 nM	COc1cc2c(cc1-c1cccc(N3CCN(C(=O)OC(C)(C)C)CC3)c1)-c1c(-c3cccs3)nc(C(=O)N(C)C(C)(C)C)n1CC2 [Example 2o]	
16 nM	COc1cc2c(cc1SC(C)C)-c1c(-c3cccs3)nc(C(=O)N(C)C(C)(C)C)n1CC2 [Example 52c, 9-Isopropylsulfanyl-8-methoxy-1-thiophen-2-yl-5,6-dihydro-imidazo[5,1-a]isoquinoline-3-carboxylic acid tert-butyl-methyl-amide]	
19 nM	COCOc1cc2c(cc1OC)CCn1c(C(=O)N(C)C(C)(C)C)nc(-c3cccs3)c1-2 [Example 35b, 8-Methoxy-9-methoxymethoxy-1-thiophen-2-yl-5,6-dihydro-imidazo[5,1-a]isoquinoline-3-carboxylic acid tert-butyl-methyl-amide]	
